Measurements as given in patent publication US11178895B2, “Composition for enhancing immunity of insects and method thereof” (NatureWise Biotech & Medicals Corporation, priority 2017, dated 2021).

System: field bees
Experiment: Honey bee acute contact toxicity test (topical imidacloprid): tolerance of bees to imidacloprid
Format: in vivo
Details: control group fed 50% sucrose water
From the text: Many reports confirm that neonicotinoids cause damage to the immune system of bees and many species (Mason et al., 2013). It is clear that damage to the immune system may be one of the important causes of bee killing by imidacloprid (a pesticide). According to the experimental results of the composition of the invention on the survival rate of bees and the regulation of immune genes, in this experiment, field bees that are easily exposed to pesticides are used as the test subjects, and sugar water containing a concentration of 0.5 mg/mL of Macaranga tanarius extract is fed to observe whether the tolerance of bees to imidacloprid can be enhanced.
The experiment employed Topical application method with reference to US EPAOCSPP 850.3020: Honey Bee Acute Contact Toxicity Test. […] After the bees were frozen and fainted, 1 μg/bee of the imidacloprid solution was administered quantitatively to the prothorax tergum of the bee by a microapplicator. The solvent control group was administered with 1 […]. Each group had 10 bees. After the administration of the drug, the bees were transferred to a constant-temperature growth box for breeding. The sugar water containing 0.5 mg/mL of Macaranga tanarius extract was provided to feed the bees in the experimental group, and the control group was fed with 50% sucrose water. […]

For `O=[N+]([O-])NC1=NCCN1Cc1ccc(Cl)nc1` [imidacloprid], the “24-hour average mortality rate” value (6.7 ng/μL imidacloprid) was 19.30% and the “24-hour average mortality rate” value (23.8 ng/μL imidacloprid) was 36.84%.
